The values that follow come from patent US9468670B2, “Melatonin-based treatment and diagnosis of bile duct disease” (Texas A&M University System, priority 2011, dated 2016).

A short description of series [1]: Liver weight, body weight and liver to body weight ratio in normal and BDL rats. It counts as in vivo, rat. As to conditions: tap water containing melatonin (20 mg/L) for 1 week. The protocol: Male 344 Fischer rats (150-175 g) were purchased from Charles River (Wilmington, Mass.) and kept in a temperature-controlled environment (22° C.) with 12:12 hr light/dark cycles. Animals were fed ad libitum and had free access to food and drinking water. […] Before each surgical procedure, animals were anesthetized with sodium pentobarbital (50 mg/kg BW, IP). All animal experiments were performed in accordance with a protocol approved by the Scott and White and Texas A&M Health Science Center Institutional Animal Care and Use Committee and conform to the Guide for the Care and Use of Laboratory Animals published by the US National Institutes of Health (NIH Publication No. 85-23, revised 1996). In all animals, wet liver weight, body weight, wet liver weight to body weight ratio, and an index of liver cell growth including cholangiocytes were measured ([…] et al., 1988).

The nature of series [2]: H&E evaluation of organ damage in melatonin-treated rats. Format: in vivo, rat. As to conditions: normal and BDL rats treated with melatonin. Here is the method:
The following was also evaluated in paraffin-embedded liver sections ([…]): (i) lobular necrosis; (ii) the intrahepatic bile duct mass (IBDM) of large ([…]) (Alpini et al., 1997; Glaser et al., 2009) cholangiocytes, the only biliary cell types proliferating following BDL (Alpini et al., 1998; Glaser et al., 2009) and (iii) the percentage of cholangiocyte apoptosis by semiquantitative terminal deoxynucleotidyltransferase biotin-dUTP nick-end labeling (TUNEL) kit (Apoptag; Chemicon International, Inc.) (Glaser et al., 2010). Lobular necrosis was measured in liver sections stained for hematoxylin and eosin (Glaser et al., 2010). Lobular necrosis was scored as follows: −=0 foci; +/−=<2 foci; +=2-4 foci; and ++=>4 foci (Glaser et al., 2010). The IBDM was measured as area occupied by CK-19 positive-bile duct/total area×100 (Glaser et al., 2010). It was also evaluated by H&E of sections if melatonin administration induces the damage of kidney, heart, stomach, spleen and small and large intestine of normal and BDL rats. The sections from the selected were evaluated in a blinded-fashion by two board-certified pathologists by a BX-51 light microscope (Olympus, Tokyo, Japan) equipped with a camera.

Take `COc1ccc2[nH]cc(CCNC(C)=O)c2c1` [melatonin]: in series [1] (BDL rats), the Body weight is 150.1 ± 7.9 gm, the “Liver to body weight ratio” value stood at 4.5 ± 0.1 and the Liver weight is recorded as 6.7 ± 0.1 gm. Further, the Body weight in series [1] (normal rats) is 206.6 ± 3.9 gm. In addition, in series [2], the “Morphological damage of kidney, heart, stomach, spleen and small and large intestine” value is listed as “No morphological damage”.
